Data from patent US20250375417A1, “OREXIN RECEPTOR 2 (OX2R) AGONIST FOR USE IN NARCOLEPSY TYPE 1 (NT1)” (TAKEDA PHARMACEUTICAL COMPANY LIMITED, priority 2024, published 2025).

Assays:
participants with NT1 = test: SF-36 and EQ-5D-5L health-related quality of life, Phase 2 NT1 trial; type: in vivo, human
From the text: Health conditions such as mobility, self-care, usual activities, pain/discomfort, and/or anxiety/depression as related to NT1 can be assessed by the EQ-5D-5L assessment. The EQ-5D-5L is a standardized 5-item measure of health status developed by the EuroQol Group to provide a simple, generic measure of health for clinical and economic appraisal that has been used in a wide range of health conditions and treatments (Herdman et al. 2011; Janssen et al. 2013). The EQ-5D-5L consists of a descriptive system and the EuroQol visual analog scale (VAS). The descriptive system comprises 5 dimensions: mobility, self-care, usual activities, pain/discomfort, and anxiety/depression. The EuroQol VAS records the participant's self-rated health on a vertical VAS. This can be used as a quantitative measure of health outcome that reflects the participant's own judgment. The scores on these 5 dimensions can be presented as a health profile or can be converted to a single summary index number (utility) reflecting preferability compared with other health profiles.
Patient health self-assessments can be measured by the SF-36. The SF-36 is a 36-item, participant-reported survey of participant health. […] Similar to each scale, the component scores are also positively scored so that higher scores represent better health-related quality-of-life. […]

participants with NT2 = test: Safety (TEAEs), Phase 2 NT2 trial; type: in vivo, human
Experimental: The principal mitigation strategy for risks related to BP increase, HR increase, insomnia, and bladder events included appropriate selection of the study population; use of the inpatient clinical research unit setting and home health visits, which permitted close monitoring and rapid institution of appropriate care as needed; appropriate specified monitoring procedures; and use of experienced staff trained in study procedures. To mitigate cardiovascular risks, BP and HR were measured frequently in this study; cardiovascular effects were evaluated by using BP and HR assessments and electrocardiographic (ECG) assessments. Stopping rules for individual participants and the overall study were established. In addition, because liver function test (LFT) elevation cases have been observed in another OX2R agonist with structural similarity, LFTs (ALT, AST, GGT, and total bilirubin) were closely monitored.
Liver function test (LFTs) (alanine aminotransferase [ALT], aspartate aminotransferase [AST], γ-glutamyl transferase [GGT], and total bilirubin) were closely monitored in this study. Stopping criteria for individual participants and the overall study, based on abnormal LFTs were established.
Eligible participants were age 18-70 years, with Epworth Sleepiness Scale (ESS) score>12 and no other current EDS-related medical conditions. Participants were randomized 1:1:1 to daily oral Compound A 2 mg twice 3 hours apart, 2 mg then 5 mg 3 hours later, or placebo. Study endpoints included change from baseline to Week 8 in mean Sleep Onset Latency on the Maintenance of Wakefulness Test (mean SOL-MWT; primary endpoint), ESS total score, and incidence of treatment-emergent adverse events (TEAEs). Participants who completed the placebo-controlled study could enroll in a ˜2-year Long Term Extension (LTE) study. LTE TEAE data up to Jan. 25, 2024 are reported.

For `CCS(=O)(=O)N[C@@H]1[C@H](Cc2cccc(-c3cc(F)cc(F)c3)c2F)N(C(=O)C(C)(C)O)CC1(F)F` [Compound A, N-{(2S,3R)-4,4-difluoro-1-(2-hydroxy-2-methylpropanoyl)-2-[(2,3′,5′-trifluoro[1,1′-biphenyl]-3-yl)methyl]pyrrolidin-3-yl}ethanesulfonamide], the “SF-36 summary scores, change from baseline versus placebo” value (participants with NT1; all Compound A doses (FIG. 22)) was “Statistically significant improvements”, the “EQ-5D (index score and VAS), change from baseline versus placebo” value (participants with NT1; all Compound A doses (FIG. 23)) was “Statistically significant improvements” and the “Occurrence of TEAEs” value (participants with NT2; Compound A-treated participants (28/47), 8 weeks) was 59.6%. For the same molecule, the “Serious TEAEs” value (participants with NT2; parent and LTE study) was “no serious TEAEs” and the “Participants discontinued due to TEAEs” value (participants with NT2; parent study (arm not stated)) was “Two”.
